From patent US20100056519A1, “COMPOSITION AND METHOD FOR REDUCING PLATELET ACTIVATION AND FOR THE TREATMENT OF THROMBOTIC EVENTS” (priority 2008, published 2010)

Assays:
Format in all cases: cell-based, human
P-selectin (CD62p) = test: TRAP-stimulated whole blood flow cytometry, P-selectin; conditions: Mean ± SD
Procedure: (§1) The methodology employed was conventional aggregation induced by 5 μM ADP, 1 μg/ml collagen, 10 μM TRAP, whole blood aggregation with 1 μg/ml collagen, Ultegra, and PFA-100 Analyzers, expression of 14 intact, and TRAP-stimulated major receptors by whole blood flow cytometry were utilized to assess platelet activity after preincubation with escalating concentrations of E5555 (20 ng/ml, 50 ng/ml, and 100 ng/ml). The experiments were performed in healthy volunteers, CAD patients treated with ASA, and CAD patients treated with ASA and clopidogrel combination (n=10, for each group).
(§2) An Informed Consent was obtained from all volunteers. Drug users were excluded from data analysis. The study was approved by Quorum Institutional Review Board. All subjects underwent blood sampling after at least 30 minutes of rest and two or more hours of fasting. Blood (28 ml) was drawn between 8 and 10 a.m. in order to avoid any diurnal influence and sampled from an antecubital vein using a 21-gauge butterfly needle containing 3.2% sodium citrate (1:9 volume) after having discarded the first 1.5 ml of free running blood. Four Vacutainer tubes (7.0 ml) were collected for a total of 28 ml of whole blood-citrate mixture from each study participant. Chronologically, blood samples were delivered to the core laboratory facility within 45 minutes after drawing. Then all tubes of blood-citrate mixture were pooled. One portion of pooled blood (5 ml) was kept as an internal control and pretreated with the vehicle. The remaining blood (23 ml) was used for the in vitro exposure to E5555 at concentrations of 20 ng/ml, 50 ng/ml, and 100 ng/ml. […] The platelet aggregation studies, Rapid Analyzers measures, and flow cytometry preparations were initiated within no more than 110 minutes following the blood draw, incubation with the drug, and preparation of the samples.
(§3) Formation of platelet-leukocyte aggregates was assessed by dual labeling with pan-platelet marker (CD151), and then with CD14, the macrophage receptor for endotoxin lipopolysaccharides (PharMingen, and Coulter, San Diego, Calif., USA). The tubes were then covered with aluminum foil and incubated at 37° C. for 40 minutes with gentle rotation. After incubation, samples were immediately analyzed on a Becton Dickinson FACScan flow cytometer. The instrument was set up to measure forward light scatter, and FITC fluorescence. All parameters were collected using four-decade logarithmic amplification. The data was retrieved in list mode files and then analyzed. P selectin was expressed as percent positive cells. Other antigens were expressed as log mean fluorescence intensity.
(§4) For flow cytometry (TRAP-stimulated) all of the above flow cytometry experiments were identically repeated utilizing prestimulation with 10 μmol/L TRAP for 5 minutes at 37° C. To determine statistics, a Paired Sign Test was used to define significance of differences between vehicle and E5555-treated groups. The Mann-Whitney U test was used to analyze nonparametric data. Normally distributed data were expressed as mean±standard error (m±SE), and skewed data as median (range). All P-values were two sided. All analysis was performed using the SPSS v9.0 program (SPSS Inc., Chicago, Ill.).

LAMP-3 (CD63) = test: Unstimulated whole blood flow cytometry, LAMP-3; conditions: for LAMP-3 (CD63), Mean Fluorescence Intensity: unstimulated, Mean ± SD
Procedure: as §1, §2, §3

SPAN-12 = test: TRAP-stimulated whole blood flow cytometry, SPAN-12; conditions: Mean ± SD
Procedure: as §1, §2, §3, §4

PMA (CD14 + CD151) = test: Unstimulated whole blood flow cytometry, platelet-monocyte aggregates; conditions: for PMA (CD14 + CD151), Mean Fluorescence Intensity: unstimulated, Mean ± SD
Procedure: as §1, §2, §3

PECAM-1 (CD31) = test: Unstimulated whole blood flow cytometry, PECAM-1; conditions: for PECAM-1 (CD31), Mean Fluorescence Intensity: unstimulated, Mean ± SD
Procedure: as §1, §2, §3

GP37 (CD165) = test: Unstimulated whole blood flow cytometry, GP37; conditions: Mean ± SD
Procedure: as §1, §2, §3

CD-40L (CD154) = test: TRAP-stimulated whole blood flow cytometry, CD40-ligand; conditions: Mean ± SD
Procedure: as §1, §2, §3, §4

[1] = E5555 20 ng/ml, Patients (ASA + C)
[2] = E5555 50 ng/ml, Patients (ASA + C)
[3] = E5555 100 ng/ml, Patients (ASA + C)
[4] = E5555 100 ng/ml, Patients (ASA)
[5] = overall summary, stimulation not stated

Br.CCOc1cc2c(c(F)c1OCC)C(=N)N(CC(=O)c1cc(N3CCOCC3)c(OC)c(C(C)(C)C)c1)C2 [E5555, 1-(3-tert-butyl-4-methoxy-5-morpholinophenyl)-2-(5,6-diethoxy-7-fluoro-1-imino-1,3-dihydro-2H-isoindol-2-yl)ethanone hydrobromide]
P-selectin (CD62p), % positive cells (P-selectin (CD62p); [1]): 11 ± 5 % positive cells
P-selectin (CD62p), % positive cells (P-selectin (CD62p); E5555 20 ng/ml, Patients (ASA)): 22 ± 6 % positive cells
P-selectin (CD62p), % positive cells (P-selectin (CD62p); E5555 20 ng/ml, Volunteers): 31 ± 8 % positive cells
P-selectin (CD62p), % positive cells (P-selectin (CD62p); [2]): 8 ± 3 % positive cells
P-selectin (CD62p), % positive cells (P-selectin (CD62p); E5555 50 ng/ml, Patients (ASA)): 15 ± 4 % positive cells
P-selectin (CD62p), % positive cells (P-selectin (CD62p); E5555 50 ng/ml, Volunteers): 14 ± 3 % positive cells
P-selectin (CD62p), % positive cells (P-selectin (CD62p); [3]): 3 ± 1 % positive cells
P-selectin (CD62p), % positive cells (P-selectin (CD62p); [4]): 8 ± 4 % positive cells
P-selectin (CD62p), % positive cells (P-selectin (CD62p); E5555 100 ng/ml, Volunteers): 11 ± 3 % positive cells
LAMP, effect in words (LAMP-3 (CD63); [5]): not affected
LAMP-3 (CD63), Mean Fluorescence Intensity (LAMP-3 (CD63); [1]): 7.2 ± 1.3 MFI
LAMP-3 (CD63), Mean Fluorescence Intensity (LAMP-3 (CD63); E5555 20 ng/ml, Patients (ASA)): 7.0 ± 1.6 MFI
LAMP-3 (CD63), Mean Fluorescence Intensity (LAMP-3 (CD63); E5555 20 ng/ml, Volunteers): 8.1 ± 2.0 MFI
LAMP-3 (CD63), Mean Fluorescence Intensity (LAMP-3 (CD63); [2]): 7.0 ± 1.7 MFI
LAMP-3 (CD63), Mean Fluorescence Intensity (LAMP-3 (CD63); E5555 50 ng/ml, Patients (ASA)): 7.2 ± 1.5 MFI
LAMP-3 (CD63), Mean Fluorescence Intensity (LAMP-3 (CD63); E5555 50 ng/ml, Volunteers): 8.0 ± 1.7 MFI
LAMP-3 (CD63), Mean Fluorescence Intensity (LAMP-3 (CD63); [3]): 6.9 ± 1.8 MFI
LAMP-3 (CD63), Mean Fluorescence Intensity (LAMP-3 (CD63); [4]): 6.5 ± 1.9 MFI
LAMP-3 (CD63), Mean Fluorescence Intensity (LAMP-3 (CD63); E5555 100 ng/ml, Volunteers): 7.7 ± 2.1 MFI
SPAN-12, Mean Fluorescence Intensity (SPAN-12; [1]): 9 ± 2 MFI
SPAN-12, Mean Fluorescence Intensity (SPAN-12; E5555 20 ng/ml, Patients (ASA)): 12 ± 4 MFI
SPAN-12, Mean Fluorescence Intensity (SPAN-12; E5555 20 ng/ml, Volunteers): 20 ± 3 MFI
SPAN-12, Mean Fluorescence Intensity (SPAN-12; [2]): 9 ± 3 MFI
SPAN-12, Mean Fluorescence Intensity (SPAN-12; E5555 50 ng/ml, Patients (ASA)): 9 ± 4 MFI
SPAN-12, Mean Fluorescence Intensity (SPAN-12; E5555 50 ng/ml, Volunteers): 17 ± 5 MFI
SPAN-12, Mean Fluorescence Intensity (SPAN-12; [3]): 11 ± 3 MFI
SPAN-12, Mean Fluorescence Intensity (SPAN-12; [4]): 10 ± 6 MFI
SPAN-12, Mean Fluorescence Intensity (SPAN-12; E5555 100 ng/ml, Volunteers): 17 ± 4 MFI
Formation of platelet-monocyte aggregates, effect in words (PMA (CD14 + CD151); [5]): significantly reduced
PMA (CD14 + CD151), Mean Fluorescence Intensity (PMA (CD14 + CD151); [1]): 104 ± 16 MFI
PMA (CD14 + CD151), Mean Fluorescence Intensity (PMA (CD14 + CD151); E5555 20 ng/ml, Patients (ASA)): 114 ± 18 MFI
PMA (CD14 + CD151), Mean Fluorescence Intensity (PMA (CD14 + CD151); E5555 20 ng/ml, Volunteers): 130 ± 16 MFI
PMA (CD14 + CD151), Mean Fluorescence Intensity (PMA (CD14 + CD151); [2]): 100 ± 27 MFI
PMA (CD14 + CD151), Mean Fluorescence Intensity (PMA (CD14 + CD151); E5555 50 ng/ml, Patients (ASA)): 114 ± 19 MFI
PMA (CD14 + CD151), Mean Fluorescence Intensity (PMA (CD14 + CD151); E5555 50 ng/ml, Volunteers): 128 ± 18 MFI
PMA (CD14 + CD151), Mean Fluorescence Intensity (PMA (CD14 + CD151); [3]): 105 ± 21 MFI
PMA (CD14 + CD151), Mean Fluorescence Intensity (PMA (CD14 + CD151); [4]): 107 ± 20 MFI
PMA (CD14 + CD151), Mean Fluorescence Intensity (PMA (CD14 + CD151); E5555 100 ng/ml, Volunteers): 124 ± 23 MFI
PECAM-1 expression, effect in words (PECAM-1 (CD31); [5]): significant reduction
PECAM-1 (CD31), Mean Fluorescence Intensity (PECAM-1 (CD31); [1]): 55 ± 11 MFI
PECAM-1 (CD31), Mean Fluorescence Intensity (PECAM-1 (CD31); E5555 20 ng/ml, Patients (ASA)): 52 ± 9 MFI
PECAM-1 (CD31), Mean Fluorescence Intensity (PECAM-1 (CD31); E5555 20 ng/ml, Volunteers): 64 ± 10 MFI
PECAM-1 (CD31), Mean Fluorescence Intensity (PECAM-1 (CD31); [2]): 51 ± 9 MFI
PECAM-1 (CD31), Mean Fluorescence Intensity (PECAM-1 (CD31); E5555 50 ng/ml, Patients (ASA)): 53 ± 7 MFI
PECAM-1 (CD31), Mean Fluorescence Intensity (PECAM-1 (CD31); E5555 50 ng/ml, Volunteers): 60 ± 8 MFI
PECAM-1 (CD31), Mean Fluorescence Intensity (PECAM-1 (CD31); [3]): 54 ± 8 MFI
PECAM-1 (CD31), Mean Fluorescence Intensity (PECAM-1 (CD31); [4]): 57 ± 10 MFI
PECAM-1 (CD31), Mean Fluorescence Intensity (PECAM-1 (CD31); E5555 100 ng/ml, Volunteers): 64 ± 11 MFI
GP37 (CD165), Mean Fluorescence Intensity (GP37 (CD165); [1]): 25 ± 11 MFI
GP37 (CD165), Mean Fluorescence Intensity (GP37 (CD165); E5555 20 ng/ml, Patients (ASA)): 30 ± 7 MFI
GP37 (CD165), Mean Fluorescence Intensity (GP37 (CD165); E5555 20 ng/ml, Volunteers): 27 ± 8 MFI
GP37 (CD165), Mean Fluorescence Intensity (GP37 (CD165); [2]): 28 ± 10 MFI
GP37 (CD165), Mean Fluorescence Intensity (GP37 (CD165); E5555 50 ng/ml, Patients (ASA)): 27 ± 12 MFI
GP37 (CD165), Mean Fluorescence Intensity (GP37 (CD165); E5555 50 ng/ml, Volunteers): 28 ± 7 MFI
GP37 (CD165), Mean Fluorescence Intensity (GP37 (CD165); [3]): 25 ± 12 MFI
GP37 (CD165), Mean Fluorescence Intensity (GP37 (CD165); [4]): 28 ± 11 MFI
GP37 (CD165), Mean Fluorescence Intensity (GP37 (CD165); E5555 100 ng/ml, Volunteers): 26 ± 6 MFI
CD-40L (CD154), Mean Fluorescence Intensity (CD-40L (CD154); [1]): 4.9 ± 0.5 MFI
CD-40L (CD154), Mean Fluorescence Intensity (CD-40L (CD154); E5555 20 ng/ml, Patients (ASA)): 5.2 ± 0.4 MFI
CD-40L (CD154), Mean Fluorescence Intensity (CD-40L (CD154); E5555 20 ng/ml, Volunteers): 6.3 ± 0.6 MFI
CD-40L (CD154), Mean Fluorescence Intensity (CD-40L (CD154); [2]): 4.0 ± 0.3 MFI
CD-40L (CD154), Mean Fluorescence Intensity (CD-40L (CD154); E5555 50 ng/ml, Patients (ASA)): 4.8 ± 0.5 MFI
CD-40L (CD154), Mean Fluorescence Intensity (CD-40L (CD154); E5555 50 ng/ml, Volunteers): 5.7 ± 0.6 MFI
CD-40L (CD154), Mean Fluorescence Intensity (CD-40L (CD154); [3]): 4.7 ± 0.5 MFI
CD-40L (CD154), Mean Fluorescence Intensity (CD-40L (CD154); [4]): 5.0 ± 0.8 MFI
CD-40L (CD154), Mean Fluorescence Intensity (CD-40L (CD154); E5555 100 ng/ml, Volunteers): 5.7 ± 0.4 MFI
